According to ChEMBL document CHEMBL5038625, “Application of the dual-tail approach for the design and synthesis of novel Thiopyrimidine-Benzenesulfonamide hybrids as selective carbonic anhydrase inhibitors” (Eur J Med Chem, 2022):

Columns and labels:
UACC-62 = experiment: Antiproliferative activity against human UACC-62 cells assessed as cell growth inhibition at 10 uM incubated for 24 hrs by sulforhodamine B assay; assay type: functional; details: read-out: GI
SK-MEL-28 = experiment: Antiproliferative activity against human SK-MEL-28 cells assessed as cell growth inhibition at 10 uM incubated for 24 hrs by sulforhodamine B assay; assay type: functional; details: read-out: GI
MCF7 [1] = experiment: Induction of apoptosis in human MCF cells assessed as viable cells measured after 48 hrs by Annexin-V-FITC/propidium iodide staining based flow cytometry (reference value: 98.15%); assay type: functional
BT-549 = experiment: Antiproliferative activity against human BT-549 cells assessed as cell growth inhibition at 10 uM incubated for 24 hrs by sulforhodamine B assay; assay type: functional; details: read-out: GI
HL-60 = experiment: Antiproliferative activity against human HL-60 cells assessed as cell growth inhibition at 10 uM incubated for 24 hrs by sulforhodamine B assay; assay type: functional; details: read-out: GI
A498 = experiment: Antiproliferative activity against human A498 cells assessed as cell growth inhibition at 10 uM incubated for 24 hrs by sulforhodamine B assay; assay type: functional; details: read-out: GI
NCI/ADR-RES = experiment: Antiproliferative activity against human NCI-ADR-RES cells assessed as cell growth inhibition at 10 uM incubated for 24 hrs by sulforhodamine B assay; assay type: functional; details: read-out: GI
MDA-MB-231 [2] = experiment: Cell cycle arrest in human MDA-MB-231 cells assessed as accumulation at G1 phase incubated for 48 hrs by propidium iodide staining based flow cytometric analysis (reference value: 55.63 %); assay type: functional
MCF7 [3] = experiment: Cell cycle arrest in human MCF7 cells assessed as accumulation at G1 phase incubated for 48 hrs by propidium iodide staining based flow cytometric analysis (reference value: 42.84 %); assay type: functional
HOP-62 = experiment: Antiproliferative activity against human HOP-62 cells assessed as cell growth inhibition at 10 uM incubated for 24 hrs by sulforhodamine B assay; assay type: functional; details: read-out: GI
Malme-3M = experiment: Antiproliferative activity against human Malme-3M cells assessed as cell growth inhibition at 10 uM incubated for 24 hrs by sulforhodamine B assay; assay type: functional; details: read-out: GI
MDA-MB-468 = experiment: Antiproliferative activity against human MDA-MB-468 cells assessed as cell growth inhibition at 10 uM incubated for 24 hrs by sulforhodamine B assay; assay type: functional; details: read-out: GI
COLO 205 = experiment: Antiproliferative activity against human COLO 205 cells assessed as cell growth inhibition at 10 uM incubated for 24 hrs by sulforhodamine B assay; assay type: functional; details: read-out: GI
SK-OV-3 = experiment: Antiproliferative activity against human SK-OV-3 cells assessed as reduction in cell viability incubated for 24 hrs by sulforhodamine B assay; details: SK-OV-3, 24 h
MDA-MB-231 [4] = experiment: Induction of apoptosis in human MDA-MB-231 cells assessed as necrotic cells measured after 48 hrs by Annexin-V-FITC/propidium iodide staining based flow cytometry (reference value: 1.13%); assay type: functional
NCI-H460 = experiment: Antiproliferative activity against human NCI-H460 cells assessed as cell growth inhibition at 10 uM incubated for 24 hrs by sulforhodamine B assay; assay type: functional; details: read-out: GI
OVCAR-3 = experiment: Antiproliferative activity against human OVCAR-3 cells assessed as cell growth inhibition at 10 uM incubated for 24 hrs by sulforhodamine B assay; assay type: functional; details: read-out: GI
A549 = experiment: Antiproliferative activity against human A549 cells assessed as cell growth inhibition at 10 uM incubated for 24 hrs by sulforhodamine B assay; assay type: functional; details: read-out: GI
HCT-116 = experiment: Antiproliferative activity against human HCT-116 cells assessed as reduction in cell viability incubated for 24 hrs by sulforhodamine B assay; details: HCT-116, 24 h
[5] = Antiproliferative activity against human […] cells assessed as cell growth inhibition at 10 uM incubated for 24 hrs by sulforhodamine B assay; assay type: functional; details: read-out: GI
SW-620 [6] = experiment: Antiproliferative activity against human SW-620 cells assessed as cell growth inhibition at 10 uM incubated for 24 hrs by sulforhodamine B assay; assay type: functional; details: read-out: GI
HT-29 = experiment: Antiproliferative activity against human HT-29 cells assessed as reduction in cell viability incubated for 24 hrs by sulforhodamine B assay; details: HT-29, 24 h
NCI-H522 = experiment: Antiproliferative activity against human NCI-H522 cells assessed as cell growth inhibition at 10 uM incubated for 24 hrs by sulforhodamine B assay; assay type: functional; details: read-out: GI
SNB-75 = experiment: Antiproliferative activity against human SNB-75 cells assessed as cell growth inhibition at 10 uM incubated for 24 hrs by sulforhodamine B assay; assay type: functional; details: read-out: GI
K562 = experiment: Antiproliferative activity against human K562 cells assessed as cell growth inhibition at 10 uM incubated for 24 hrs by sulforhodamine B assay; assay type: functional; details: read-out: GI
MCF7 [7] = experiment: Antiproliferative activity against human MCF7 cells assessed as reduction in cell viability incubated for 24 hrs by sulforhodamine B assay; assay type: functional, cell-based; details: MCF7, 24 h
UACC-257 = experiment: Antiproliferative activity against human UACC-257 cells assessed as cell growth inhibition at 10 uM incubated for 24 hrs by sulforhodamine B assay; assay type: functional; details: read-out: GI
SK-MEL-5 = experiment: Antiproliferative activity against human SK-MEL-5 cells assessed as cell growth inhibition at 10 uM incubated for 24 hrs by sulforhodamine B assay; assay type: functional; details: read-out: GI
SF-268 = experiment: Antiproliferative activity against human SF-268 cells assessed as cell growth inhibition at 10 uM incubated for 24 hrs by sulforhodamine B assay; assay type: functional; details: read-out: GI
SF-295 = experiment: Antiproliferative activity against human SF-295 cells assessed as cell growth inhibition at 10 uM incubated for 24 hrs by sulforhodamine B assay; assay type: functional; details: read-out: GI
SK-MEL-2 = experiment: Antiproliferative activity against human SK-MEL-2 cells assessed as cell growth inhibition at 10 uM incubated for 24 hrs by sulforhodamine B assay; assay type: functional; details: read-out: GI
OVCAR-8 = experiment: Antiproliferative activity against human OVCAR-8 cells assessed as cell growth inhibition at 10 uM incubated for 24 hrs by sulforhodamine B assay; assay type: functional; details: read-out: GI
MDA-MB-231 [8] = experiment: Antiproliferative activity against human MDA-MB-231 cells assessed as cell growth inhibition at 10 uM incubated for 24 hrs by sulforhodamine B assay; assay type: functional; details: read-out: GI
EKVX = experiment: Antiproliferative activity against human EKVX cells assessed as cell growth inhibition at 10 uM incubated for 24 hrs by sulforhodamine B assay; assay type: functional; details: read-out: GI
CAKI-1 = experiment: Antiproliferative activity against human CAKI-1 cells assessed as cell growth inhibition at 10 uM incubated for 24 hrs by sulforhodamine B assay; assay type: functional; details: read-out: GI
SW-620 [9] = experiment: Antiproliferative activity against human SW-620 cells assessed as reduction in cell viability incubated for 24 hrs by sulforhodamine B assay; details: SW-620, 24 h
MCF7 [10] = experiment: Antiproliferative activity against human MCF7 cells assessed as cell growth inhibition at 10 uM incubated for 24 hrs by sulforhodamine B assay; assay type: functional; details: read-out: GI
M14 = experiment: Antiproliferative activity against human M14 cells assessed as cell growth inhibition at 10 uM incubated for 24 hrs by sulforhodamine B assay; assay type: functional; details: read-out: GI
OVCAR-4 = experiment: Antiproliferative activity against human OVCAR-4 cells assessed as cell growth inhibition at 10 uM incubated for 24 hrs by sulforhodamine B assay; assay type: functional; details: read-out: GI
MDA-MB-231 [11] = experiment: Cell cycle arrest in human MDA-MB-231 cells assessed as accumulation at G2 phase incubated for 48 hrs by propidium iodide staining based flow cytometric analysis (reference value: 20.65 %); assay type: functional

Structure (SMILES): COc1ccc(OC)c(-c2nc(SCC(=O)c3ccc(Br)cc3)nc(Nc3ccc(S(N)(=O)=O)cc3)c2C#N)c1
- inhibition of growth at 10 µM (UACC-62): 57.3%
- inhibition of growth at 10 µM (SK-MEL-28): 42.3%
- Activity (MCF7 [1]): 88.17%
- inhibition of growth at 10 µM (BT-549): 50.6%
- inhibition of growth at 10 µM (HL-60): 74.1%
- inhibition of growth at 10 µM (A498): 73.6%
- inhibition of growth at 10 µM (NCI/ADR-RES): 25.6%
- Activity (MDA-MB-231 [2]): 39.7%
- Activity (MCF7 [3]): 5.77%
- inhibition of growth at 10 µM (HOP-62): 51.6%
- inhibition of growth at 10 µM (Malme-3M): 49.8%
- inhibition of growth at 10 µM (MDA-MB-468): 56.1%
- inhibition of growth at 10 µM (COLO 205): 31.6%
- IC50 (SK-OV-3): 29.9 µM
- Activity (MDA-MB-231 [4]): 7.18%
- inhibition of growth at 10 µM (NCI-H460): 79.2%
- inhibition of growth at 10 µM (OVCAR-3): 49.4%
- inhibition of growth at 10 µM (A549): 32.5%
- IC50 (HCT-116): 2.5 µM
- inhibition of growth at 10 µM [5]: 18.4%
- inhibition of growth at 10 µM (SW-620 [6]): 64%
- IC50 (HT-29): 4.3 µM
- inhibition of growth at 10 µM (NCI-H522): 52%
- inhibition of growth at 10 µM (SNB-75): 77.8%
- inhibition of growth at 10 µM (K562): 77.5%
- IC50 (MCF7 [7]): 2.5 µM
- inhibition of growth at 10 µM (UACC-257): 43.1%
- inhibition of growth at 10 µM (SK-MEL-5): 44%
- inhibition of growth at 10 µM (SF-268): 43.3%
- inhibition of growth at 10 µM (SF-295): 66.9%
- inhibition of growth at 10 µM (SK-MEL-2): 69.6%
- inhibition of growth at 10 µM (OVCAR-8): 37.2%
- inhibition of growth at 10 µM (MDA-MB-231 [8]): 37%
- inhibition of growth at 10 µM (EKVX): 36.3%
- inhibition of growth at 10 µM (CAKI-1): 65.6%
- IC50 (SW-620 [9]): 4.5 µM
- inhibition of growth at 10 µM (MCF7 [10]): 71.1%
- inhibition of growth at 10 µM (M14): 57.5%
- inhibition of growth at 10 µM (OVCAR-4): 42.6%
- Activity (MDA-MB-231 [11]): 30.07%
